Data reported in the Kinase Knowledgebase extract (Sharma et al. 2016).
pIC50: −log10 of the molar value.

How the values were obtained:
PIK3CB (Human) = PIK3CB (Human) (UniProt P42338)
PIK3CA (human) = PIK3CA (human) (UniProt P42336)
Sequence of PIK3CA (human) (P42336 whole entry, looked up): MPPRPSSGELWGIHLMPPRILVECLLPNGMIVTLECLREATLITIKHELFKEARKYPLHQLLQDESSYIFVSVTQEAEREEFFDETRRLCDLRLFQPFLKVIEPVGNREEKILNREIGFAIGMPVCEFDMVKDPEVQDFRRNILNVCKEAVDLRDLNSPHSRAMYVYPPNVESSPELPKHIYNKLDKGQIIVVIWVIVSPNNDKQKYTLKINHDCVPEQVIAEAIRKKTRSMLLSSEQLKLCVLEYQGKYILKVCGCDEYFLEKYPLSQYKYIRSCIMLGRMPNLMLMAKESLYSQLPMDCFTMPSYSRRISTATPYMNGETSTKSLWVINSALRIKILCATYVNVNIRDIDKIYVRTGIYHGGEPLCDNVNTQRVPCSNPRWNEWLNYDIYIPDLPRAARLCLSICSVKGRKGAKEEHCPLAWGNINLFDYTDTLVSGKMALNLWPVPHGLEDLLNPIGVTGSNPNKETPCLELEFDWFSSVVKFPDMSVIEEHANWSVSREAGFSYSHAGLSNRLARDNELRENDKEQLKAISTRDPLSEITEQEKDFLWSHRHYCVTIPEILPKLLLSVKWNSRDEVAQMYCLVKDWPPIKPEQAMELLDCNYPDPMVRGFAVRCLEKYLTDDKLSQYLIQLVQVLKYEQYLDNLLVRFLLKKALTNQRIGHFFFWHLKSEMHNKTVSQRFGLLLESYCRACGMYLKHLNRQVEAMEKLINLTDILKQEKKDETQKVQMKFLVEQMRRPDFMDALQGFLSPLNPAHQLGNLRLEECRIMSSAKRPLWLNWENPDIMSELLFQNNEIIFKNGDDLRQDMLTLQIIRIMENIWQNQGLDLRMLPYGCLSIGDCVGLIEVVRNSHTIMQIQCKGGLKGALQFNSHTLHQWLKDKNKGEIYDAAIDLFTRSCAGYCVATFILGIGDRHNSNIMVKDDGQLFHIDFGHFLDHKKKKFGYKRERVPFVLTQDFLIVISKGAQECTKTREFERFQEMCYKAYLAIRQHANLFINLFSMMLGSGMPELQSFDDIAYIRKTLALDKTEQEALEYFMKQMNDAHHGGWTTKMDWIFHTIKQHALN

Sequence of PIK3CB (Human) (P42338 whole entry, looked up): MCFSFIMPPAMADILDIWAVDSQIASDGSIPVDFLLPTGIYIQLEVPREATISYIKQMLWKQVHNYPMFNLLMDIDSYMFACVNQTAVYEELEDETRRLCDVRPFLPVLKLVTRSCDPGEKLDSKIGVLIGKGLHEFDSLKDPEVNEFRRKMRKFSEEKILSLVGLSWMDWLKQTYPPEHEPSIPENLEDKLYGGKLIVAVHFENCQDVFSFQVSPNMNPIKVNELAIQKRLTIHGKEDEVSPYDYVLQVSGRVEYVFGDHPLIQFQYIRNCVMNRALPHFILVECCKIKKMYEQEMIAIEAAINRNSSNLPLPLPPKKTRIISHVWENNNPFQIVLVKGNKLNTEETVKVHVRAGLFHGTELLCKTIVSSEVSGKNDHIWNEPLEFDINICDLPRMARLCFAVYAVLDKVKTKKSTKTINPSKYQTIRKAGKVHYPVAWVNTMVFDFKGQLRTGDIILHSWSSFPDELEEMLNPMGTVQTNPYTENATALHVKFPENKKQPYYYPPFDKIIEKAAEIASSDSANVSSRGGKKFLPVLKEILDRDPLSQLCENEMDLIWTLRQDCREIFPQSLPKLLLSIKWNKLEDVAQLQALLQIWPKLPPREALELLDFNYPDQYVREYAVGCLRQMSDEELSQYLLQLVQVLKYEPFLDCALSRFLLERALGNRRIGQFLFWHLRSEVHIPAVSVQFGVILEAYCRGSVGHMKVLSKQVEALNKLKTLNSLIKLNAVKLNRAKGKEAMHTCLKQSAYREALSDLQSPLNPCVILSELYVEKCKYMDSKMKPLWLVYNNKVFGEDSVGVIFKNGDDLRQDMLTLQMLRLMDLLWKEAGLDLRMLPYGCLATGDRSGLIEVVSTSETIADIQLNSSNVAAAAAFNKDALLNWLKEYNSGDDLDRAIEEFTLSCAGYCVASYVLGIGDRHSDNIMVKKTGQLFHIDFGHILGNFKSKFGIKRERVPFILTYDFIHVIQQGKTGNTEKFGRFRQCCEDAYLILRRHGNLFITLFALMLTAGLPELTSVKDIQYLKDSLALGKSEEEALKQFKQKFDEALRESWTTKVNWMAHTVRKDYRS

## Cc1ccc(S(=O)(=O)NCC(C)(C)O)cc1-c1cnc(N)c(-c2cnc(C3CC3)o2)c1
PIK3CB (Human)
  pIC50: 5.89
PIK3CA (human)
  pIC50: 6.55
